The results in this text go back to patent US8507686B2, “Substituted bicyclic methyl azetidines as sphingosine-1 phosphate receptors modulators” (Allergan, Inc., priority 2011, dated 2013).

The test concerns the target T1, human S1P1 receptor (Homo sapiens, UniProt P21453).
T1 construct: expressed in transfected cells; host or cells: cells stably expressing the S1P1 receptor; membranes used
In words: GTP γ35S binding assay for S1P1 activity. It is filed as biochemical. Conditions: membranes of cells stably expressing the S1P1 receptor; agonist-induced GTP γ35S binding; read-out: EC50 at the S1P1 receptor from GTP γ35S. As to the method: Novel compounds were synthesized and tested for S1P1 activity using the GTP γ^35S binding assay. These compounds may be assessed for their ability to activate or block activation of the human S1P1 receptor in cells stably expressing the S1P1 receptor. […] binding was measured in the medium containing (mM) HEPES 25, pH 7.4, MgCl2 10, NaCl 100, dithitothreitol 0.5, digitonin 0.003%, 0.2 nM GTP γ^35S, and 5 μg membrane protein in a volume of 150 μl. Test compounds were included in the concentration range from 0.08 to 5,000 nM unless indicated otherwise. Membranes were incubated with 100 μM 5′-adenylylimmidodiphosphate for 30 min, and subsequently with 10 μM GDP for 10 min on ice. Drug solutions and membrane were mixed, and then reactions were initiated by adding GTP γ^35 S and continued for 30 min at 25° C. Reaction mixtures were filtered over Whatman GF/B filters under vacuum, and washed three times with 3 mL of ice-cold buffer (HEPES 25, pH7.4, MgCl2 10 and NaCl 100). Filters were dried and mixed with scintillant, and counted for ^35S activity using a β-counter. Agonist-induced GTP γ^35 S binding was obtained by subtracting that in the absence of agonist. Binding data were analyzed using a non-linear regression method. In case of antagonist assay, the reaction mixture contained 10 nM […] in the presence of test antagonist at concentrations ranging from 0.08 to 5000 nM.

What is called pEC50 is the EC50 on a negative log10 scale, so that one unit is a factor of ten.

SMILES strings stand for the structures. pEC50: −log10 of the molar value.

T1 sequence (P21453 whole entry): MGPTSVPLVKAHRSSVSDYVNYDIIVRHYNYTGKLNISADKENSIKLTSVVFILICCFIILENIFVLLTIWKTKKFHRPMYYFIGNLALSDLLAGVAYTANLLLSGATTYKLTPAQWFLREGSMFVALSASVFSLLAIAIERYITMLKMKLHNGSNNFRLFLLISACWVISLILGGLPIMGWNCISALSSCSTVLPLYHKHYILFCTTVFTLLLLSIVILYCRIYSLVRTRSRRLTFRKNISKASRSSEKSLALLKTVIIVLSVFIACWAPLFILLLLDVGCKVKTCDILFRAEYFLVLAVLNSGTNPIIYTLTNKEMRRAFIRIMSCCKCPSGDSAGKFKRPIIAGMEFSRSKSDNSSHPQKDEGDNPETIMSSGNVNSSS

For the compound `O=C(O)C1CN(Cc2ccc(C#CCCCCc3ccccc3)c3cccnc23)C1` [Compound 1], the pEC50 was 6.41.
